{
  "source": "patent US20240148691A1",
  "about": "“Treatment of Hypertension-Related and Vascular Diseases” (The Medical College of Wisconsin, Inc., priority 2021, published 2024)",
  "key": {"[1]": {"system": "renal afferent arterioles", "assay": "Renal afferent arteriole microvascular responses (juxtamedullary nephron technique) after chronic treatment of hypertensive SS rats", "format": "in vivo, rat", "protocol": "(§1) Microvascular responses of renal afferent preglomerular arterioles to perfused pressure. Juxtamedullary nephron vasculature was isolated, and an afferent arteriole was monitored continuously by videomicroscopy. SS/BN2 refers to BN chromosome replacement into SS background. Thus, SS/BN2 are not expected to be salt-sensitive and represent a control for the SS strain.\nVascular reactivity of renal afferent arterioles was measured using the juxtamedullary nephron technique approximately 24 hours after final treatment (18 weeks) (FIG. 9). Remarkably, SHetA2 restored renal microvascular responses in hypertensive rats, as detected by response of afferent arterioles either to increasing perfusion pressure or to ATP, known mediator of afferent arteriolar autoregulatory responses (FIG. 8).\n(§2) SS rats were weaned at 3 weeks of age and transferred to 1% salt diet for additional 3 weeks before treatment. At 6 weeks of age, rats were either given vehicle control or SHetA2 at 60 mg/kg by oral gavage. Oral gavage was performed 3 times weekly every other day for a period of 18 weeks. […] Urine was collected from rats housed in metabolic cages for 1-2 hours, approximately 24 hours after last treatment after 6, 12 and 18 weeks of treatment. […] Vascular reactivity of renal afferent arterioles was measured using the juxtamedullary nephron technique approximately 24 hours after final treatment (18 weeks) (FIG. 7)."}, "[2]": {"system": "renal afferent preglomerular arterioles", "assay": "Renal afferent preglomerular arteriole microvascular responses, SHetA2 added in vitro", "set-up": "species or system rat", "source_text": "as §1\nMicrovascular reactivity of renal blood vessels is reduced in two major causes of end stage renal disease: hypertension-induced nephropathy (HN) and diabetic nephropathy. One of the highlights of vascular dysfunction in HN is the loss of autoregulation of blood resistance vessels. Using rat model of salt-sensitive (SS) HN we have previously shown that overexpression of adaptor protein p66Shc is implicated in the loss of microvascular reactivity during the progression of HN (FIGS. 3, 5). In HN p66Shc is over-expressed in vascular smooth muscle cells of the walls of renal resistance arteries, including afferent arteriole (FIG. 4). p66Shc knockout restores the ability of afferent arteriole to contract in response to increased perfusion pressure and ATP (FIG. 5) and mitigates glomerular damage in SS rats on 1% salt diet. In this study, we tested ability of a flexible heteroarotinoid called Sulfur Heteroarotinoid A2 (SHetA2, pronounced Ess-Het-Aye-Two), known to inhibit p66Shc action, to prevent development and restore renal microvascular responses in hypertensive rats when added after the development of hypertension-induced nephropathy. […] Remarkably, SHetA2 prevented loss of microvascular reactivity and restored renal microvascular responses in hypertensive rats, as detected by response of afferent arterioles either to increasing perfusion pressure or to ATP, known mediator of afferent arteriolar autoregulatory responses (FIG. 6)."}, "[3]": {"system": "hypertension-induced nephropathy", "assay": "Urinary protein excretion in salt-sensitive hypertensive rats", "format": "in vivo, rat", "protocol": "as §2\nHypertension-induced nephropathy causes excessive protein excretion in the urine."}, "[4]": {"assay": "Blood pressure and body weight during long-term treatment of hypertensive rats", "format": "in vivo, rat", "protocol": "To assess whether treatment with SHetA2 would reduce the systolic blood pressure in hypertensive rats, animals were treated for 18 weeks with either vehicle control or SHetA2.\nas §2"}, "[5]": {"system": "afferent arterioles", "assay": "Renal microvascular responses in streptozotocin-induced diabetic rats", "format": "in vivo, rat", "details": "for renal microvascular responses: diabetic animals", "source_text": "(§3) The inventors hypothesized that SHetA2 would be effective in preventing and treating diabetic nephropathy. Therefore, the inventors treated rats with diabetes induced by streptozotocin (STZ) with SHetA2. […] (FIGS. 20-21)."}, "[6]": {"system": "diabetic nephropathy", "assay": "Urinary protein excretion in diabetic animals", "format": "in vivo, rat", "source_text": "as §3"}, "[7]": {"details": "cited from earlier work"}, "[8]": {"system": "KATP channels", "assay": "Glibenclamide-induced arteriole constriction in diabetic rats", "set-up": "species or system rat", "source_text": "The inventors hypothesized that SHetA2 acts by inhibiting p66Shc-induced activation of KATP channels in diabetic animals. Therefore, the inventors treated control and SHetA2 treated arterioles with increasing concentrations of glibenclamide, antidiabetic drug which binds and inhibits the ATP-sensitive potassium channel's KATP inhibitory subunit which causes increasing of intracellular Ca^2+ concentrations leading to arteriole constriction."}},
  "note": "“Also recorded” adds a separate entry of the source.",
  "data": [
    {"smiles": "CC1(C)CC(C)(C)c2cc(NC(=S)Nc3ccc([N+](=O)[O-])cc3)ccc2S1", "note": "[SHetA2, Sulfur Heteroarotinoid A2]", "values": [
      {"measurement": "renal microvascular responses of afferent arterioles to increasing perfusion pressure or ATP", "setting": "[1]; hypertensive SS rats, 1% salt diet, SHetA2 60 mg/kg oral gavage 3 times weekly, 18 weeks, about 24 hours after final treatment, 60 mg/kg", "value": "restored"},
      {"measurement": "renal damage", "setting": "[1]; hypertensive rats", "value": "mitigates"},
      {"measurement": "vessel diameter after chronic administration of SHetA2", "setting": "[1]; male and female rats (FIG. 17)", "value": "decrease"},
      {"measurement": "vessel diameter in response to SHetA2 treatment", "setting": "[2]; dose dependence (FIG. 14)", "value": "dose-dependent decrease"},
      {"measurement": "renal microvascular responses in renal afferent preglomerular arterioles", "setting": "[2]; in vitro, hypertensive rats (FIG. 6)", "value": "partially restored"},
      {"measurement": "renal microvascular response", "setting": "[2]; salt-sensitive rats with hypertension, dose dependence (FIG. 14)", "value": "dose-dependent increase"},
      {"measurement": "urinary protein excretion", "setting": "[3]; S36A salt-sensitive animals", "value": "reduces or prevents"},
      {"measurement": "urinary protein excretion", "setting": "[3]; wild type SS hypertensive rats, SHetA2 60 mg/kg oral gavage, vs control-treated rats, 60 mg/kg", "value": "statistically significant decrease; also recorded: significantly reduces"},
      {"measurement": "urinary protein excretion", "setting": "[3]; wild type SS hypertensive rats, SHetA2 60 mg/kg oral gavage, vs control-treated rats, listed as SHet2A", "value": "reduces or prevents"},
      {"measurement": "progression of hypertension / increase of blood pressure", "setting": "[4]; 1% salt diet, long-term treatment", "value": "did not prevent; also recorded: lack of effect"},
      {"measurement": "systolic blood pressure", "setting": "[4]; hypertensive rats, 18 weeks treatment vs vehicle", "value": "did not significantly reduce"},
      {"measurement": "body weight", "setting": "[4]; long-term treatment", "value": "lack of effect"},
      {"measurement": "development of microvascular damage", "setting": "[5]; STZ diabetic rats", "value": "successfully prevented"},
      {"measurement": "renal microvascular responses", "setting": "[5]; acute treatment", "value": "increased"},
      {"measurement": "renal microvascular responses", "setting": "[5]; chronic treatment, oral gavage every other day", "value": "increased"},
      {"measurement": "signs of diabetic nephropathy (dilation of afferent arterioles)", "setting": "[5]; p66ShcKO rats treated with STZ", "value": "absence of effect"},
      {"measurement": "signs of diabetic nephropathy (dilation of afferent arterioles)", "setting": "[5]; rats treated with streptozotocin (STZ)", "value": "reduces or prevents"},
      {"measurement": "urinary protein excretion", "setting": "[6]", "value": "reduces or prevents"},
      {"measurement": "effect on heart function", "setting": "[7]; animal models, after months of treatment", "value": "does not have any detectable effect"},
      {"measurement": "teratogenicity (birth defects)", "setting": "[7]; animal models", "value": "does not cause"},
      {"measurement": "toxicity", "setting": "[7]; oral, doses 25-fold above the doses used in the rat hypertensive model", "value": "no toxicity"}
    ]},
    {"smiles": "COc1ccc(Cl)cc1C(=O)NCCc1ccc(S(=O)(=O)NC(=O)NC2CCCCC2)cc1", "note": "[glibenclamide]", "values": [
      {"measurement": "arteriole constriction", "setting": "[8]; control arterioles, increasing glibenclamide concentrations", "value": "caused constriction"},
      {"measurement": "signs of diabetic nephropathy", "setting": "[8]; diabetic p66ShcKO rats", "value": "not diabetic p66ShcKO rats"},
      {"measurement": "signs of diabetic nephropathy", "setting": "[8]; diabetic rats", "value": "effective in attenuating"},
      {"measurement": "glibenclamide effect / arteriole constriction", "setting": "[8]; diabetic rats / arterioles treated with SHetA2, increasing glibenclamide concentrations", "value": "not in SHetA2 treated arterioles; also recorded: lack of glibenclamide effect"}
    ]}
  ]
}
